Test results reported in ChEMBL document CHEMBL5154770, “Discovery of novel ataxia telangiectasia mutated (ATM) kinase modulators: Computational simulation, biological evaluation and cancer combinational chemotherapy study” (Eur J Med Chem, 2022).
Active and inactive are the calls of the source. The calls are words filed in the database; no cut-off is given here.

Assays:
MCF7 [1] = test: Synergistic cytotoxicity against human MCF7 cells assessed as combination index in presence of 10 uM 3-Chloro-4-methoxy-N-((4-(oxazolo[4,5-b]pyridin-2-yl)phenyl)carbamothioyl)benzamide measured after 2 days by SRB assay; format: functional; conditions: time 2 day
MCF7 [2] = test: Antagonistic cytotoxicity against human MCF7 cells assessed as combination index measured after 2 days in presence of 5 uM KU55933 by SRB assay; format: functional; conditions: time 2 day
MCF7 [3] = test: Antagonistic cytotoxicity against human MCF7 cells measured after 2 days in presence of 5 uM KU55933 by SRB assay; format: functional, cell-based; conditions: MCF7, 48 h
SW480 [4] = test: Antagonistic cytotoxicity against human SW480 cells measured after 3 days in presence of 5 uM 2(((24(2,4-dichlorobenzyl)oxy)naphthalen-1-yl)methyl)amino)ethan-1-ol by SRB assay; format: functional, cell-based; conditions: SW480, 72 h
SW480 [5] = test: Antagonistic cytotoxicity against human SW480 cells assessed as combination index measured after 3 days in presence of 50 nM AZD0156 by SRB assay; format: functional; conditions: time 3 day
SW480 [6] = test: Synergistic cytotoxicity against human SW480 cells assessed as combination index measured after 9 days in presence of 5 uM KU60019 by SRB assay; format: functional; conditions: time 9 day
NCI-H1299 [7] = test: Synergistic cytotoxicity against human NCI-H1299 cells measured in presence of 50 nM AZD0156 after 6 days by SRB assay; format: functional, cell-based; conditions: NCI-H1299, 144 h
NCI-H1299 [8] = test: Synergistic cytotoxicity against human NCI-H1299 cells measured in presence of 5 uM KU60019 after 6 days by SRB assay; format: functional, cell-based; conditions: NCI-H1299, 144 h
SW480 [9] = test: Cytotoxicity against human SW480 cells measured after 9 days in presence of 5 uM 2(((24(2,4-dichlorobenzyl)oxy)naphthalen-1-yl)methyl)amino)ethan-1-ol by SRB assay; format: functional, cell-based; conditions: SW480, 216 h
SW480 [10] = test: Additive cytotoxicity against human SW480 cells measured after 9 days in presence of 5 uM KU55933 by SRB assay; format: functional, cell-based; conditions: SW480, 216 h
NCI-H1299 [11] = test: Cytotoxicity against human NCI-H1299 cells measured in presence of 5 uM 2(((2-(2,4-dichlorobenzyl)oxy)naphthalen-1-yl)methyl)amino)ethan-1-ol after 2 days by SRB assay; format: functional, cell-based; conditions: NCI-H1299, 48 h
NCI-H1299 [12] = test: Additive cytotoxicity against human NCI-H1299 cells assessed as combination index measured in presence of 5 uM KU55933 after 6 days by SRB assay; format: functional; conditions: time 6 day
NCI-H1299 [13] = test: Additive cytotoxicity against human NCI-H1299 cells assessed as combination index measured in presence of 5 uM KU55933 after 2 days by SRB assay; format: functional; conditions: time 2 day
SW480 [14] = test: Antagonistic cytotoxicity against human SW480 cells measured after 3 days in presence of 5 uM KU55933 by SRB assay; format: functional, cell-based; conditions: SW480, 72 h
SW480 [15] = test: Antagonistic cytotoxicity against human SW480 cells assessed as combination index measured after 3 days in presence of 5 uM KU60019 by SRB assay; format: functional; conditions: time 3 day
MCF7 [16] = test: Antagonistic cytotoxicity against human MCF7 cells assessed as combination index measured after 2 days in presence of 50 nM AZD0156 by SRB assay; format: functional; conditions: time 2 day
NCI-H1299 [17] = test: Additive cytotoxicity against human NCI-H1299 cells measured in presence of 5 uM KU55933 after 2 days by SRB assay; format: functional, cell-based; conditions: NCI-H1299, 48 h
SW480 [18] = test: Antagonistic cytotoxicity against human SW480 cells measured after 9 days in presence of 3-Chloro-4-methoxy-N-((4-(oxazolo[4,5-b]pyridin-2-yl)phenyl)carbamothioyl)benzamide by SRB assay; format: functional, cell-based; conditions: time 9.0 day
MCF7 [19] = test: Antagonistic cytotoxicity against human MCF7 cells assessed as combination index in presence of 10 uM 3-Chloro-4-methoxy-N-((4-(oxazolo[4,5-b]pyridin-2-yl)phenyl)carbamothioyl)benzamide measured after 6 days by SRB assay; format: functional; conditions: time 6 day
MCF7 [20] = test: Synergistic cytotoxicity against human MCF7 cells measured after 6 days in presence of 50 nM AZD0156 by SRB assay; format: functional, cell-based; conditions: MCF7, 144 h
NCI-H1299 [21] = test: Additive cytotoxicity against human NCI-H1299 cells measured in presence of 5 uM KU55933 after 6 days by SRB assay; format: functional, cell-based; conditions: NCI-H1299, 144 h
SW480 [22] = test: Antagonistic cytotoxicity against human SW480 cells assessed as combination index measured after 3 days in presence of 5 uM 2(((24(2,4-dichlorobenzyl)oxy)naphthalen-1-yl)methyl)amino)ethan-1-ol by SRB assay; format: functional; conditions: time 3 day
MCF7 [23] = test: Antagonistic cytotoxicity against human MCF7 cells assessed as combination index measured after 2 days in presence of 5 uM 2(((24(2,4-dichlorobenzyl)oxy)naphthalen-1-yl)methyl)amino)ethan-1-ol by SRB assay; format: functional; conditions: time 2 day
NCI-H1299 [24] = test: Cytotoxicity against human NCI-H1299 cells measured in presence of 5 uM 2(((2-(2,4-dichlorobenzyl)oxy)naphthalen-1-yl)methyl)amino)ethan-1-ol after 6 days by SRB assay; format: functional, cell-based; conditions: NCI-H1299, 144 h
SW480 [25] = test: Antagonistic cytotoxicity against human SW480 cells assessed as combination index measured after 3 days in presence of 5 uM KU55933 by SRB assay; format: functional; conditions: time 3 day
SW480 [26] = test: Additive cytotoxicity against human SW480 cells assessed as combination index measured after 9 days in presence of 5 uM KU55933 by SRB assay; format: functional; conditions: time 9 day
NCI-H1299 [27] = test: Synergistic cytotoxicity against human NCI-H1299 cells assessed as combination index measured in presence of 5 uM KU60019 after 6 days by SRB assay; format: functional; conditions: time 6 day
MCF7 [28] = test: Cytotoxicity against human MCF7 cells measured after 6 days in presence of 5 uM 2(((24(2,4-dichlorobenzyl)oxy)naphthalen-1-yl)methyl)amino)ethan-1-ol by SRB assay; format: functional, cell-based; conditions: MCF7, 144 h
MCF7 [29] = test: Antagonistic cytotoxicity against human MCF7 cells measured after 2 days in presence of 5 uM 2(((24(2,4-dichlorobenzyl)oxy)naphthalen-1-yl)methyl)amino)ethan-1-ol by SRB assay; format: functional, cell-based; conditions: MCF7, 48 h
MCF7 [30] = test: Antagonistic cytotoxicity against human MCF7 cells measured after 2 days in presence of 5 uM KU60019 by SRB assay; format: functional, cell-based; conditions: MCF7, 48 h
MCF7 [31] = test: Synergistic cytotoxicity against human MCF7 cells in presence of 10 uM 3-Chloro-4-methoxy-N-((4-(oxazolo[4,5-b]pyridin-2-yl)phenyl)carbamothioyl)benzamide measured after 2 days by SRB assay; format: functional, cell-based; conditions: MCF7, 48 h
SW480 [32] = test: Antagonistic cytotoxicity against human SW480 cells measured after 3 days in presence of 5 uM KU60019 by SRB assay; format: functional, cell-based; conditions: SW480, 72 h
MCF7 [33] = test: Antagonistic cytotoxicity against human MCF7 cells measured after 2 days in presence of 50 nM AZD0156 by SRB assay; format: functional, cell-based; conditions: MCF7, 48 h
SW480 [34] = test: Synergistic cytotoxicity against human SW480 cells measured after 9 days in presence of 50 nM AZD0156 by SRB assay; format: functional, cell-based; conditions: SW480, 216 h
MCF7 [35] = test: Antagonistic cytotoxicity against human MCF7 cells assessed as combination index measured after 2 days in presence of 5 uM KU60019 by SRB assay; format: functional; conditions: time 2 day
MCF7 [36] = test: Antagonistic cytotoxicity against human MCF7 cells in presence of 10 uM 3-Chloro-4-methoxy-N-((4-(oxazolo[4,5-b]pyridin-2-yl)phenyl)carbamothioyl)benzamide measured after 6 days by SRB assay; format: functional, cell-based; conditions: MCF7, 144 h
MCF7 [37] = test: Synergistic cytotoxicity against human MCF7 cells measured after 6 days in presence of 5 uM KU60019 by SRB assay; format: functional, cell-based; conditions: MCF7, 144 h

Row | Compound | CI (MCF7 [1]) | CI (MCF7 [2]) | IC50 (MCF7 [3]) | IC50 (SW480 [4]) | CI (SW480 [5]) | CI (SW480 [6]) | IC50 (NCI-H1299 [7]) | IC50 (NCI-H1299 [8]) | IC50 (SW480 [9]) | IC50 (SW480 [10]) | IC50 (NCI-H1299 [11]) | CI (NCI-H1299 [12]) | CI (NCI-H1299 [13]) | IC50 (SW480 [14]) | CI (SW480 [15]) | CI (MCF7 [16]) | IC50 (NCI-H1299 [17]) | Activity (SW480 [18]) | CI (MCF7 [19]) | IC50 (MCF7 [20]) | further results
1 | COc1cc([C@@H]2c3cc4c(cc3[C@@H](O[C@@H]3O[C@@H]5CO[C@@H](C)O[C@H]5[C@H](O)[C@H]3O)[C@H]3COC(=O)[C@H]23)OCO4)cc(OC)c1O [ETOPOSIDE] | 0.84 | 2.7 | 58.8 µM | 3.6 µM | 1.3 | 0.22 | 0.24 µM | 0.23 µM | 0.07 µM | 0.08 µM | 11.1 µM | 0.91 | 0.98 | 3.5 µM | 1.7 | 2.8 | 9.37 µM | Active | 1.16 | 0.11 µM | IC50 (NCI-H1299 [21]): 0.46 µM; CI (SW480 [22]): 2; CI (MCF7 [23]): 2.8; IC50 (NCI-H1299 [24]): 0.71 µM; CI (SW480 [25]): 1.4; CI (SW480 [26]): 0.95; CI (NCI-H1299 [27]): 0.77; IC50 (MCF7 [28]): 0.66 µM; IC50 (MCF7 [29]): 46.2 µM; IC50 (MCF7 [30]): 87.4 µM; IC50 (MCF7 [31]): 23.6 µM; IC50 (SW480 [32]): 3.8 µM; IC50 (MCF7 [33]): 62.7 µM; IC50 (SW480 [34]): < 0.01 µM; CI (MCF7 [35]): 4.2; IC50 (MCF7 [36]): 0.65 µM; IC50 (MCF7 [37]): 0.06 µM
2 | CCc1c2c(nc3ccc(OC(=O)N4CCC(N5CCCCC5)CC4)cc13)-c1cc3c(c(=O)n1C2)COC(=O)[C@]3(O)CC [IRINOTECAN] | 0.78 | 1.4 | 38.1 µM | 12.4 µM | 2.4 | 0.25 | 0.22 µM | 0.27 µM | 0.07 µM | 0.6 µM | 11.1 µM | 1.1 | 1.1 | 7.2 µM | 3.4 | 1.3 | 13.1 µM | Active | 1.16 | 0.16 µM | IC50 (NCI-H1299 [21]): 1.67 µM; CI (SW480 [22]): 3.2; CI (MCF7 [23]): 2.1; IC50 (NCI-H1299 [24]): 1.83 µM; CI (SW480 [25]): 1.6; CI (SW480 [26]): 1.02; CI (NCI-H1299 [27]): 0.66; IC50 (MCF7 [28]): 1.68 µM; IC50 (MCF7 [29]): 42.4 µM; IC50 (MCF7 [30]): 38.1 µM; IC50 (MCF7 [31]): 26.3 µM; IC50 (SW480 [32]): 15.4 µM; IC50 (MCF7 [33]): 39.2 µM; IC50 (SW480 [34]): < 0.12 µM; CI (MCF7 [35]): 1.6; IC50 (MCF7 [36]): 1.88 µM; IC50 (MCF7 [37]): 1.98 µM
